In ChEMBL document CHEMBL1141270, “Withanolides from Jaborosa kurtzii” (2007):

Assays:
[1] = test system: Lactuca sativa; experiment: Phytotoxicity against Lactuca sativa assessed as inhibition in radicle length at 400 ppm; assay type: functional
[2] = test system: Avena sativa; experiment: Phytotoxicity against Avena sativa assessed as inhibition of radicle length at 400 ppm; assay type: functional

**Q.** `CC1=C(C)C(=O)O[C@]2(C1)O[C@@]1(O)CC3C(CC=C4CC=CC(=O)[C@@]43C)C3CC[C@@](O)([C@@H]2C)[C@]31C` (some centres not stated) [JABOROSALACTONE 43] was tested. Which inhibition at 400 ppm [1] did it give?
**A.** 32%

**Q.** What about the inhibition at 400 ppm [2] of the same compound?
**A.** 4%
